The values that follow come from patent US8808692B2, “Compositions comprising immunoreactive reagents and saponins, and methods of use thereof” (CSL Limited, priority 2001, dated 2014).

Data set [1] relates to target cells (E.G7-OVA or MO4). Briefly: Enhancement of antibody mediated lysis in vitro (51Cr-labeled target cells). Format: cell-based, mice. The settings on record: splenocytes incubated with 1 to 10 ug/ml QS-21 for 24 to 72 hours; monoclonal antibody to SIINFEKL/Class I MHC 1 to 10 ug/ml. Here is the method:
Murine splenocytes (effector cells) are generated from the spleens of naive 6-8week old mice. These effector cells are incubated with 1 to 10 ug/ml of QS-21 or appropriate amount of another immunomodulatory saponin for 24 to 72 hours. At the end of the incubation period, target cells (E.G7-OVA or MO4) are loaded with 51 Cr. Effector cells and labeled target cells are incubated at defined effector:target ratios in the presence and absence of monoclonal antibody to SIINFEKL (SEQ ID NO: 1)/Class I MHC (1 to 10 ug/ml) at […] for 30 to 60minutes. The lysis in the presence of QS-21 and monoclonal is compared to controls without QS-21, without monoclonal, or both.

Data set [2] concerns MO4 tumor or EG7-OVA tumor. In words: Tumor challenge model. The settings on record: QS-21 (10-20 ug) with monoclonal antibody vs monoclonal antibody alone; 30 to 60 day period. Format: in vivo, C57B1/6 mice. The procedure:
C57B1/6 mice are inoculated by s.c. route in the flank with MO4 tumor (1 ×10^5) or EG7-OVA tumor. At 24 to 48 hours after inoculation, mice are injected by IP route with a monoclonal antibody to SIINFEKL (SEQ ID NO: 1)/Class I MHC , or by local SC route in the presence or absence of QS-21 (10 -20 ug). The antitumor effect of the QS-21/monoclonal antibody treatment is compared to that of monoclonal antibody treatment by monitoring the growth of the tumors over a 30 to 60 day period (measurement with calipers). Survival was determined, and significance with respect to time to death was assessed using Cox regression analysis. Mice were also observed daily for signs of toxicity including level of activity, ruffled fur, diarrhea, and general appearance. […] Models and methods for evaluation of the effects of saponins and antibodies, or other immunoreactive reagents are known in the art. (Wooldridge et al., Blood, 1997, 89 (8): 2994-2998, incorporated by reference herein in its entirety).

For data set [3], the system named is S. pneumonia or S. aureus. Briefly: Opsonophagocytosis assay with HL-60 effector cells. Format: cell-based. To be noted: HL-60 effector cells incubated with QS-21, at a given antibody titer.
For data set [4], the system named is Fc α R, Fc gamma R1, Fc gamma RII or Fc gamma RIII. Briefly: Upregulation of Fc receptors (FACScan). The settings on record: QS-21 for example 1-10 ug/ml. Format: cell-based. Here is the method: Monocytes, natural killer cells, or polymorphonuclear cells are incubated in the presence or absence of QS-21 (for example 1-10 ug/ml). The trypsinized cells are incubated at 4° C. for 60 min with monoclonal antibodies specific to Fc α R, Fc gamma R1, Fc gamma RII or Fc gamma RIII. The cells are then incubated with an anti-mouse IgG FITC probe, washed, fixed in paraformaldehyde, and analyzed by FACScan.

Another data set relates to macrophage cells. In words: Cytokine production in macrophage cells. Format: cell-based.
Data set [5] relates to bone marrow derived dendritic cells. In words: Cytokine production in bone marrow derived dendritic cells. It is filed as cell-based.
For data set [6] the following is noted: cited from earlier work; for level of antibody response induced: mice, antigens bovine serum albumin and cytochrome b5; for IgG2a response to cytochrome b5: saponin doses of 20 μg.
For data set [7] the following is noted: melanoma patients; cited from earlier work.
For data set [8] the following is noted: mouse, in vivo; cited from earlier work.

With QS-21, the “lysis due to QS-21/monoclonal over monoclonal alone” value in [1] was “enhanced lysis”. The tumor progression result in [2] is “delay in tumor progression”. The opsonization of bacteria result in [3] was “Improved opsonization”. In addition, the “Fc receptors on monocytes, natural killer cells, or polymorphonuclear cells” value in data set [4] is reported as “Upregulation”. For the same substance, in the data set with macrophage cells, the IL-6 entry is on record as “upregulation”, the MIP-1-alpha entry is “upregulation” and the TNF-alpha entry is reported as “upregulation”. Besides, in data set [5], the “production of II-12” value was “decrease the production”, the “production of IL-1” value was “increase production”, the “production of MIP-1-alpha” value is given as “increase production” and the “production of MIP-1-beta” value is reported as “decrease the production”. In data set [6], the “level of antibody response induced” value is “comparable to other commonly used adjuvants” and the “IgG2a response to cytochrome b5” value is reported as “stimulate IgG2a response”. Further, in [7], the “serological response to MELIMMUNE-1” value is listed as “significantly increased”. Also, in data set [8], the toxicity in mice result is given as “least toxic”.

As to QS-17, in [6], the “level of antibody response induced” value is “comparable to other commonly used adjuvants” and the “IgG2a response to cytochrome b5” value was “stimulate IgG2a response”.

QS-18: in data set [6], the “level of antibody response induced” value is “comparable to other commonly used adjuvants” and the “IgG2a response to cytochrome b5” value is recorded as “stimulate IgG2a response”.
